Series [1] concerns antibody-initiated complement activation (human O sera and AB red blood cells). The series is described as follows: ABO incompatibility hemolytic assay of complement activity (CH50-type). It is filed as cell-based. Particulars: peptide 0.8 mg/ml (~0.5 mM). As for the experimental part: (§1) FIG. 1A-1B show PIC1 peptides' inhibition of complement activation in an ABO incompatibility assay. […] Inhibition of ABO incompatibility hemolysis in a CH50-type assay. Peptides are at a final concentration of 0.5 mM. Values are represented as a percent of the positive control, which consists of human O sera and AB red blood cells in GVBS^++ buffer. Data are the means of n=3 independent experiments±SEM.
(§2) For hemolytic complement assays, human red blood cells (RBCs) from type AB donors were purified, washed, and standardized to 1.0×10^9 cells/ml, as previously described. Human sera from type O donors at a 15% final concentration was combined with 0.5 mM of the peptides and the volume was brought up to 0.2 ml with GVBS^++ and 5.0×10^7 RBCs. The samples were incubated for 1 hour at 37° C. and then spun at 3,000 rpm for 5 minutes and the supernatant was collected and read at 412 nm. Values are represented as a percent of the positive control, which consists of human O sera and AB red blood cells in GVBS^++ buffer.
(§3) To assess the extent to which the peptide variants inhibit antibody-initiated complement activation, an ABO incompatibility ex vivo assay was utilized in which purified erythrocytes from a ‘type AB+’ donor are incubated with sera from a ‘type O’ subject containing anti-A and anti-B antibodies. Peptides were tested at a concentration of 0.8 mg/ml (˜0.5 mM). […] D-amino acid variants PA-0127 and PA-0133 decreased ABO hemolysis by 20% (P value=0.083) and 25% (P value=0.076), respectively. […]

The target of series [2] is T1, MPO (Homo sapiens, UniProt P05164).
T1 construct: purchased Lee BioSolutions (Maryland Heights, Mo.)
T1 sequence (P05164 49-745): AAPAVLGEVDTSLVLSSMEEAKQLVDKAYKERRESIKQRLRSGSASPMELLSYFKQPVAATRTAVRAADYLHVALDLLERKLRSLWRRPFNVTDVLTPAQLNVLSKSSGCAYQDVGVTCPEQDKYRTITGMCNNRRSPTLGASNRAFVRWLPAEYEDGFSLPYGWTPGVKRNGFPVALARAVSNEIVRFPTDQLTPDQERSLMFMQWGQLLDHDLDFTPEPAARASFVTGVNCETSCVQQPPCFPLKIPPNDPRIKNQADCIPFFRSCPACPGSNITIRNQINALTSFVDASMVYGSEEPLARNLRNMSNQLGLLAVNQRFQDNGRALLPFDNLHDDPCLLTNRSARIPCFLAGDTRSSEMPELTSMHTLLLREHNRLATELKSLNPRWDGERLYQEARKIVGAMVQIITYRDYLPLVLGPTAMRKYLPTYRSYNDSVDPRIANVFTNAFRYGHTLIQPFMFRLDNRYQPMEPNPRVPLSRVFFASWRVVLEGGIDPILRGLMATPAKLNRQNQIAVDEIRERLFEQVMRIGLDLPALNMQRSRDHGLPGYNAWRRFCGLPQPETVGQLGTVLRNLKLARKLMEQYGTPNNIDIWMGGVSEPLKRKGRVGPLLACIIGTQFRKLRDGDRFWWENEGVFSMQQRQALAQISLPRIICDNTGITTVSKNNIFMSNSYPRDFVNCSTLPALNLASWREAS
Briefly: MPO activity assay (TMB oxidation). The note with it: half-maximal values from dose-response curves. In kind it is biochemical. How it is done: The MPO activity assay was performed as previously described. Briefly, peptides were diluted to 12 mg/ml and serially titrated in a 96 well plate at a volume of 0.02 ml. MPO was diluted to 20 μg/ml and 0.02 ml was added to the titrated peptides. TMB (3,30,5,50-tetramethylbenzidine) (0.1 ml) was added to each well for 2 minutes, followed by 0.1 ml of 2.5 N H2SO4 for another 2 minutes, and then read on a 96 well plate reader (BioTek) at 450 nm.
The inventors also assessed the ability of RLS-0127* and RLS-0133* to inhibit MPO activity as determined by inhibition of oxidation of TMB in a plate-based assay. […] Additionally, the inventors assessed the ability of RLS-0127* and RLS-0133* to bind C1q in a plate-based assay in which C1q is coated on the plate and increasing amounts of the peptides are added, followed by primary antibody to the peptides and secondary antibody conjugated to HRP. The plate was then incubated with TMB to give a […] signal that is detected at a wavelength of 450 nm in a plate reader.

Series [3] has as its target T2, PD-1/PD-L1 interaction (Homo sapiens, UniProt Q15116+Q9NZQ7).
T2 construct: host or cells: PD-1 effector cells; PD-L1 aAPC/CHO-K1 cells
The series is described as follows: PD-1/PD-L1 Blockade Bioassay (Promega). It is filed as cell-based. The note with it: increasing peptide concentrations. As for the experimental part:
PD-1 effector cells were incubated with PD1-L1 aAPC cells in the absence or presence of increasing concentrations of anti-PD-1 antibody (positive control) and select PIC1 peptides. Luminescence was detected in luminometer plate reader.
To assess if PIC1 peptides could block PD-1 inhibitory activity in a cell-based assay, select peptides were screened in the PD-1/PD-L1 Blockade Bioassay (Promega). The PD-1/PD-L1 Blockade Bioassay is a biologically relevant MOA-based assay that can be used to measure the potency and stability of antibodies and other biologics designed to block the PD-1/PD-L1 interaction. This bioluminescent cell-based assay is used to measure the potency and stability of molecules targeting PD-1 and consists of two genetically engineered cell lines: aAPC/CHO-K1 Cells are CHO-K1 cells with an engineered cell surface protein designed to activate cognate TCRs in an antigen-independent manner. When the two cell types are co-cultured, the PD-1/PD-L1 interaction inhibits TCR signaling and NFAT-mediated luciferase activity. Addition of an inhibitory molecule that blocks either PD-1 or PD-L1 releases the inhibitory signal and results in TCR signaling and NFAT-mediated luciferase activity.

Series [4] in a line: ABO incompatibility hemolytic assay of complement activity (CH50-type). In kind it is cell-based, human. The note with it: human; peptide 0.8 mg/ml (~0.5 mM); read-out: decrease of ABO hemolysis compared to PA-C9Sar. As for the experimental part:
as §1, §2, §3

The test system of series [5] is purified human Pan T-cells. Briefly: T-cell exhaustion protocol (Dynabeads re-stimulation). Particulars: peptides 2 mg/ml at each stimulation; supernatant ELISA. In kind it is cell-based. How it is done:
Purified human pan-T-cells were subject to stimulation with Dynabeads every 48 hours over the period of 8 days with cells also receiving PIC1 peptides (2 mg/ml) at each stimulation. Cells not receiving Dynabeads were run in parallel to assess background levels of Caspase 3/7 signal. At the eighth day, cells were harvested and the levels of Caspase 3/7 determined by ELISA.
Purified human pan-T-cells were subject to stimulation with Dynabeads every 48 hours over the period of 8 days with cells also receiving PIC1 peptides (2 mg/ml) at each stimulation. Cell supernatants were collected at each stimulation and levels of IL-2 and IFN-gamma assayed by ELISA.
T-cell exhaustion is a form of T-cell dysfunction that occurs in cancer. It is defined by poor effector function, reduction in cytokine release (e.g., IL-2, TNF-alpha, IFN-gamma), sustained expression of inhibitory receptors (e.g., PD-1, LAG-3, CD244, CD160) with the progressive loss of effector function due to overstimulation. Exhaustion prevents optimal control of tumor growth. Exhausted T cells are prevalent in the tumor microenvironment (TME) and can lead to T-cell apoptosis. T-cell exhaustion is reversible, and pharmaceutical inhibition of T-cell exhaustion has been considered a promising strategy by many cancer researchers. To ascertain if PIC1 peptides could reverse T-cell exhaustion and increase T cell viability and effector function, a T-cell exhaustion protocol was developed. To induce T-cell exhaustion, purified human Pan T-cells were stimulated with T-Activator CD3/CD28 Dynabeads and cells are washed and re-stimulated every 48 hours. PIC1 peptides were added to the cells after each stimulation with Dynabeads. After three to four stimulations cells were harvested for readouts which consisted of assessing T-cell apoptosis by measuring Caspase 3/7 levels and production of cytokines IL-2 and IFN-gamma which is indicative of T-cell functionality. […] To further evaluate if PIC1 peptides could restore T-cell functionality in cells that have undergone the exhaustion protocol, the inventors next assessed production of cytokines IL-2 and IFN-gamma. Supernatants from the cells after each stimulation were collected and the cytokines measured by ELISA. […] The lower level of IFN-gamma signal compared to IL-2 was consistently seen in this assay.
For orientation: An ELISA detects its analyte on a solid surface through an enzyme-linked reagent.

Bridge positions count the residues as written; N and C are the ends. Square brackets hold non-standard residues; d marks the D form. Ends that are not written are not given here. Peptide text beside a SMILES is read from it. R8 = C=CCCCCCC[C@@](C)(N)C(=O)O; S5 = C=CCCC[C@](C)(N)C(=O)O; Sar = CNCC(=O)O

T2 sequence (Q15116 25-288): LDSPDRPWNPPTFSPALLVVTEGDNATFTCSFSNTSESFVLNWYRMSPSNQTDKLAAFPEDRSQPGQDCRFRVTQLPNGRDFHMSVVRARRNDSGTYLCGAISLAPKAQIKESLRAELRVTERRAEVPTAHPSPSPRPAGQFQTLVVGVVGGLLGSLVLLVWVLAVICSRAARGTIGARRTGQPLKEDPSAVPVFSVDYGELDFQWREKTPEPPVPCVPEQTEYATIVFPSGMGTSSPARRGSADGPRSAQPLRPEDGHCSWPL
T2 sequence (Q9NZQ7 19-290): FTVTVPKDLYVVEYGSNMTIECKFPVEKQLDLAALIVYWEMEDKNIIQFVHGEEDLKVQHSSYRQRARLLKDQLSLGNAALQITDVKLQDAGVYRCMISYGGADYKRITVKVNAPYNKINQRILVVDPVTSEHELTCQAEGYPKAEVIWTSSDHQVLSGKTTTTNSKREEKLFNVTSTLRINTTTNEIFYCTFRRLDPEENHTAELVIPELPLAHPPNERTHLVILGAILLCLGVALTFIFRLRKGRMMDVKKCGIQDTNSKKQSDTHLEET

For “S5ALIS5EP(Sar)CCQERAA ([S5]ALI[S5]EP[Sar]CCQERAA; bridges not given here; also: S5 1-5 hydrocarbon staple: may or may not be stapled) [PA-0138]”, in series [1], the “inhibition of ABO incompatible hemolysis compared to PA-I8Sar” value is listed as “lesser extent”.

In the case of “IALILEPI(Sar)CQEdRAA (IALILEPIXCQERAA; D-arginine, sarcosine; MOD_RES (9)..(9) Sarcosine; MOD_RES (13)..(13) D-amino acid) [PA-0167]”, the “inhibition of complement in the hemolytic assay compared to PA-C9Sar” value (shortened to “inhibition of complement … compared to PA-C9Sar”) in series [1] is “slightly less well”.

As for “IALIR8EPI(Sar)CQS5RAA (IALI[R8]EPI[Sar]CQ[S5]RAA; staple 5-12) [PA-0148]”, in series [2], the “MPO inhibition compared with PA-C9Sar” value is “decreased MPO inhibition”.

On to “IALIR8EP(Sar)CCQS5RAA (IALI[R8]EP[Sar]CCQ[S5]RAA; bridges not given here; also: R8/S5 5-12 may or may not be stapled) [PA-0136]”, for which, in series [1], the “inhibition of ABO incompatible hemolysis compared to PA-I8Sar” value is “same level as the parent molecule”.

“RLS-0142: PIC1 peptide screened in the bioassay; no sequence printed (IALILEP[Sar][dC][S5]QER[S5]A; staple 10-14)”: the “inhibition of PD-1/PD-L1 inhibitory signaling (luminescence)” value (shortened to “inhibition … (luminescence)”) in series [3] is given as “did not show PD-1/PD-L1 inhibitory activity”.

As for `CC[C@H](C)[C@H](N)C(=O)N[C@@H](C)C(=O)N[C@@H](CC(C)C)C(=O)N[C@H](C(=O)N[C@@H](CC(C)C)C(=O)N[C@@H](CCC(=O)O)C(=O)N1CCC[C@H]1C(=O)N[C@H](C(=O)N(C)CC(=O)N[C@@H](CS)C(=O)N[C@@]1(C)CCCC=CCCC[C@@](C)(C(=O)O)NC(=O)[C@H](C)NC(=O)[C@H](CCCNC(=N)N)NC(=O)[C@H](CCC(=O)O)NC1=O)[C@@H](C)CC)[C@@H](C)CC` [PA-0155] (H-IALILEPI[Sar]C[S5]ERA[S5]-OH; staple 11-15), the decrease in ABO hemolysis compared to reference peptide at 1 h in series [4] was found to be 64%. The “inhibition of complement … compared to PA-C9Sar” value in series [1] is “significant increase in complement inhibitory activity”. The “MPO inhibition compared with PA-C9Sar” value in series [2] was “decreased MPO inhibition”. Further, the “inhibition … (luminescence)” value in series [3] was “did not show PD-1/PD-L1 inhibitory activity”.

Take “IALILEdPI(Sar)CQERAA (IALILEPIXCQERAA; D-proline, sarcosine; MOD_RES (7)..(7) D-amino acid; MOD_RES (9)..(9) Sarcosine) [PA-0162]”: the “inhibition of complement … compared to PA-C9Sar” value in series [1] is “slightly less well”. In series [3], the “inhibition … (luminescence)” value is “did not show PD-1/PD-L1 inhibitory activity”. Also, the “IL-2 signal at stimulation 2” value in series [5] is on record as “showed an IL-2 signal at stimulation 2”.

Consider “S5ALIS5EPI(Sar)CQERAA ([S5]ALI[S5]EPI[Sar]CQERAA; staple 1-5) [PA-0151]”, for which the “MPO inhibition compared with PA-C9Sar” value in series [2] is “decreased MPO inhibition”.

For “IALIS5EP(Sar)S5CQERAA (IALI[S5]EP[Sar][S5]CQERAA; bridges not given here; also: S5 5-9 may or may not be stapled) [PA-0140]”, in series [1], the “inhibition of ABO incompatible hemolysis compared to PA-I8Sar” value is listed as “lesser extent”. Also, the “MPO inhibition compared with PA-I8Sar” value in series [2] is listed as “reduced inhibition of MPO activity”.

On to “IALILEP(Sar)dCS5QERS5A (IALILEP[Sar][dC][S5]QER[S5]A; staple 10-14) [PA-0143]”, for which, in series [3], the “inhibition … (luminescence)” value is reported as “did not show PD-1/PD-L1 inhibitory activity”.

For the compound “IALILEP(Sar)CS5QERS5dA (IALILEP[Sar]C[S5]QER[S5][dA]; bridges not given here; also: S5 10-14 may or may not be stapled) [PA-0145]”, in series [1], the “increase in complement inhibition compared to PA-I8Sar” value is around 10%.

Regarding “dIALILEPI(Sar)CQERAA (IALILEPIXCQERAA; D-isoleucine, sarcosine; MOD_RES (1)..(1) D-amino acid; MOD_RES (9)..(9) Sarcosine) [PA-0156]”, the “inhibition … (luminescence)” value in series [3] was “did not show PD-1/PD-L1 inhibitory activity”.

Take “IALILEPdI(Sar)CQERAA (IALILEPIXCQERAA; D-isoleucine, sarcosine; MOD_RES (8)..(8) D-amino acid; MOD_RES (9)..(9) Sarcosine) [PA-0163]”: in series [2], the “MPO inhibition compared with PA-C9Sar” value was “decreased MPO inhibition”.

For the compound “IALILEP(Sar)CS5QdERS5A (IALILEP[Sar]C[S5]Q[dE]R[S5]A; staple 10-14) [PA-0144]”, the “inhibition … (luminescence)” value in series [3] was “did not show PD-1/PD-L1 inhibitory activity”.

With “IAS5ILES5I(Sar)CQERAA (IA[S5]ILE[S5]I[Sar]CQERAA; staple 3-7) [PA-0153]”, the “MPO inhibition compared with PA-C9Sar” value in series [2] was “decreased MPO inhibition”.

For the origin of these results see patent US20230272012A1, “PEPTIDES AND METHODS OF USE” (REALTA LIFE SCIENCES, INC., priority 2020, published 2023).
